Data from ChEMBL document CHEMBL5370659 (J Med Chem, 2023).
Values after ≈ are worked out from the molar mass of the structure shown. Active and inactive are the calls of the source. The rule behind the calls is not given here.

Experiments:
[1] = Tmax in Sprague-Dawley rat at 50 mg/kg, po measured upto 1440 mins by LC-MS/MS analysis; assay type: ADME, organism-based; conditions: in vivo
[2] = AUC (0 to last) in Sprague-Dawley rat at 20 mg/kg, po measured upto 1440 mins by LC-MS/MS analysis; assay type: ADME, organism-based; parameters: time < 1440 min, dose 20 mg/kg, route po; conditions: in vivo
[3] = Metabolic stability in human hepatocytes assessed as half life; assay type: ADME, cell-based, Hepatocyte
Mus musculus [4] = experiment: Effect on total duration of immobility in C57BL/6N mouse at 10 mg/kg, po treated for 14 days by tail suspension test; assay type: functional, organism-based; conditions: time 14.0 day
[5] = Brain homogenate binding in mouse; assay type: ADME, tissue-based
[6] = Volume of distribution at steady state in Sprague-Dawley rat at 10 mg/kg, iv measured upto 1440 mins by LC-MS/MS analysis; assay type: ADME, organism-based; conditions: in vivo, read-out: Vdss
Mus musculus [7] = experiment: Effect on time spent in central zone of C57BL/6N mouse at 20 mg/kg, po treated for 14 days by locomotor activity test; assay type: functional, organism-based; conditions: time 14.0 day
[8] = Plasma concentration in CD-1 (ICR) mouse at 50 mg/kg measured 2 hrs by LC-MS/MS analysis; assay type: ADME, organism-based
[9] = molecular target: T1, Tryptophan 5-hydroxylase 1 (Homo sapiens, UniProt P17752); experiment: Inhibition of recombinant MBP-tagged full length human THP1 using L-Trp as substrate assessed as formation of 5-HTP by measuring fluorescent property
T1 sequence (P17752 whole entry): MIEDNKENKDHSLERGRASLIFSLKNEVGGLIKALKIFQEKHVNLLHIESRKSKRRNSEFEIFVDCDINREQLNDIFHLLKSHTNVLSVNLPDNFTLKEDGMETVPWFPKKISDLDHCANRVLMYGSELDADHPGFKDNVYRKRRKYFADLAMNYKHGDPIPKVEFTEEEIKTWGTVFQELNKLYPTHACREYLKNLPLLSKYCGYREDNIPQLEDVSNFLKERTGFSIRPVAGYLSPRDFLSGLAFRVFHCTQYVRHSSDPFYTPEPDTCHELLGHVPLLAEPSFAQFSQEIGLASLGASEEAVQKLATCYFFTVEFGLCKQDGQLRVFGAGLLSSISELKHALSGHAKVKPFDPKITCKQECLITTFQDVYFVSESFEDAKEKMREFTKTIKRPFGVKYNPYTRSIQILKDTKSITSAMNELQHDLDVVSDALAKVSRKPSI

[10] = Drug uptake in Sprague-Dawley rat brain at 50 mg/kg, po measured at 2 hrs by LC-MS/MS analysis; assay type: ADME, organism-based; conditions: read-out: Drug uptake
[11] = Drug uptake in Sprague-Dawley rat lung at 20 mg/kg, po measured at 0.5 hrs by LC-MS/MS analysis; assay type: ADME, organism-based; conditions: read-out: Drug uptake
[12] = Plasma concentration in Sprague-Dawley rat at 50 mg/kg, po measured at 2 hrs by LC-MS/MS analysis; assay type: ADME, organism-based
[13] = Toxicity in C57BL/6N mouse assessed as behavioral changes at 1.5 to 50 mg/kg, po bid treated for 6 to 7 days; assay type: organism-based; conditions: in vivo, dose lower 1.5 mg/kg, time lower 6 day, dose upper 50 mg/kg, time upper 7 day
[14] = Half life in CD-1 (ICR) mouse at 50 mg/kg, po measured upto 1440 mins by LC-MS/MS analysis; assay type: ADME, organism-based; conditions: in vivo
Mus musculus [15] = experiment: Effect on time spent in central zone of C57BL/6N mouse at 100 mg/kg, po treated for 14 days by locomotor activity test; assay type: functional, organism-based; conditions: time 14.0 day
[16] = Initial drug concentration in Sprague-Dawley rat at 10 mg/kg, iv measured upto 1440 mins by LC-MS/MS analysis; assay type: ADME, organism-based; conditions: in vivo
[17] = Aqueous solubility of the compound in pH 7.4 PBS buffer by HPLC-UV analysis; assay type: physicochemical
Cytochrome P450 2C9 = Cytochrome P450 2C9 (Homo sapiens, UniProt P11712); experiment: Inhibition of CYP2C9 in human liver microsome using diclofenac as substrate measured upto 50 uM incubated for 10 mins followed by NADPH addition incubated for 10 mins by LC/MS/MS analysis; assay type: ADME; conditions: microsomes, 20 min
[18] = Metabolic stability in rat hepatocytes assessed as half life; assay type: ADME, cell-based, Hepatocyte
[19] = molecular target: T2, Tryptophan 5-hydroxylase 2 (Homo sapiens, UniProt Q8IWU9); experiment: Inhibition of recombinant MBP-tagged full length human THP2 using L-Trp as substrate assessed as formation of 5-HTP by measuring fluorescent property
T2 sequence (Q8IWU9 whole entry): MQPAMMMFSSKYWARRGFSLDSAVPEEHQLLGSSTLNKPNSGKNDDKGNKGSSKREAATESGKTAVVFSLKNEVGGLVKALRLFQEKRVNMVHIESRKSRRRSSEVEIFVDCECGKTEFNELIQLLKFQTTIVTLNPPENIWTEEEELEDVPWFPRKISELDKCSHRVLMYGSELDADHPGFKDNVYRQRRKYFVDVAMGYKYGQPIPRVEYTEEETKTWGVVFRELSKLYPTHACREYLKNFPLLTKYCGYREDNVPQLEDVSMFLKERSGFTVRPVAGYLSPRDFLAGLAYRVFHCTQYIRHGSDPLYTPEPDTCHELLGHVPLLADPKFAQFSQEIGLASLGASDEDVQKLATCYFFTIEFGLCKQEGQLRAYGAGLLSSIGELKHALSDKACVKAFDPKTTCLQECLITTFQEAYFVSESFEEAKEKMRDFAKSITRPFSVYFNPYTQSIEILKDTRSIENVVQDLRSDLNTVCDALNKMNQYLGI

[20] = Half life in Sprague-Dawley rat at 10 mg/kg, iv measured upto 1440 mins by LC-MS/MS analysis; assay type: ADME, organism-based; conditions: in vivo
MC-38 = experiment: Antitumor activity against mouse MC-38 cells subcutaneously transplanted in C57BL/6N mouse assessed as reduction in absolute tumor volume at 50 mg/kg, po bid measured on day 13 relative to control; assay type: functional; conditions: MC-38, 312 h, route sc, time 13 day
[21] = Mutagenicity in Salmonella typhimurium TA98 in presence or absence of rat liver S9 fraction by Ames test; assay type: toxicity; conditions: salmonella enterica subsp. enterica serovar typhimurium
Cytochrome P450 2D6 = Cytochrome P450 2D6 (Homo sapiens, UniProt P10635); experiment: Inhibition of CYP2D6 in human liver microsome using dextromethorphan as substrate measured upto 50 uM incubated for 10 mins followed by NADPH addition incubated for 10 mins by LC/MS/MS analysis; assay type: ADME; conditions: microsomes, 20 min
[22] = Toxicity in C57BL/6N mouse subcutaneously transplanted with mouse MC-38 cells assessed as general toxic effects at 50 mg/kg, po bid measured on day 20; assay type: organism-based; conditions: in vivo, sc, 480 h, time 20 day
[23] = AUC (0 to last) in Sprague-Dawley rat at 50 mg/kg, po measured upto 1440 mins by LC-MS/MS analysis; assay type: ADME, organism-based; parameters: dose 50 mg/kg, time < 1440 min, route po; conditions: in vivo
[24] = Tlast in CD-1 (ICR) mouse at 50 mg/kg, po measured upto 1440 mins by LC-MS/MS analysis; assay type: ADME, organism-based; conditions: in vivo, 24 h
[25] = Drug uptake in CD-1 (ICR) mouse lung at 50 mg/kg measured 0.5 hrs by LC-MS/MS analysis; assay type: ADME, organism-based; conditions: read-out: Drug uptake
[26] = AUC (0 to last) in CD-1 (ICR) mouse at 50 mg/kg, po measured upto 1440 mins by LC-MS/MS analysis; assay type: ADME, organism-based; parameters: time < 1440 min, dose 50 mg/kg, route po; conditions: in vivo

Chain of Cytochrome P450 2C9 (P11712 whole entry): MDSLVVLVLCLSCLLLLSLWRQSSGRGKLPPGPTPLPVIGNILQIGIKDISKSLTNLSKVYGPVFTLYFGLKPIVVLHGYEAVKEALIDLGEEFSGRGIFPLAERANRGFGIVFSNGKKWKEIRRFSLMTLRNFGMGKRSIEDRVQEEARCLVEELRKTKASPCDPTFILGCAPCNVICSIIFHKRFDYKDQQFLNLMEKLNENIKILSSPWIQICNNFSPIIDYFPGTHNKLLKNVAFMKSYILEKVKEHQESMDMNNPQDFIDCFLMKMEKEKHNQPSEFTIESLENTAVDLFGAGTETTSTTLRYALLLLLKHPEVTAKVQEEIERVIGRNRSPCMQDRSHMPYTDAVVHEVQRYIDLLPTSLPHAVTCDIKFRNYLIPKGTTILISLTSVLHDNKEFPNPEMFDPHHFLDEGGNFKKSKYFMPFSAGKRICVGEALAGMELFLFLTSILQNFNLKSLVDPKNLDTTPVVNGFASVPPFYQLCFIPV
Chain of Cytochrome P450 2D6 (P10635 whole entry): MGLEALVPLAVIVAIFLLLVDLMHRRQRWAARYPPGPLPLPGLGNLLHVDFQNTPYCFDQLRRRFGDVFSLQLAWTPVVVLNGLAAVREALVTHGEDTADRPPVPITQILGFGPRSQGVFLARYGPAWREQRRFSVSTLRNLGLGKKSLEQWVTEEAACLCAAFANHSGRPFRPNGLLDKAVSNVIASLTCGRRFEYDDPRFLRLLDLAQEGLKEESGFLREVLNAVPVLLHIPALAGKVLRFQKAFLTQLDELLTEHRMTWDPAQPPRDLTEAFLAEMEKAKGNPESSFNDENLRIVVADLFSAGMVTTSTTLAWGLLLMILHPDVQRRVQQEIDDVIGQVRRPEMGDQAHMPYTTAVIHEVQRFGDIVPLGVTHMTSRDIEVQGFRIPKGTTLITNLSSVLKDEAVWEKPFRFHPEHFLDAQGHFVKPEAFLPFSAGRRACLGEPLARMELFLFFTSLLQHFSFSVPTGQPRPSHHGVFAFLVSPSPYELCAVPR

- Tmax [1]: 0.83 h
- AUC(0-t) at 24 h [2]: 3300 ng·h/mL
- half-life [3]: > 2.42 h
- Activity [5]: 72%
- Vd [6]: 1.4 L/kg
- concentration at 2 h [8]: 1610 ng/mL
- IC50 [9]: 77 nM
- concentration at 2 h [10]: 18 ng/g
- concentration at 0.5 h [11]: 482 ng/g
- concentration at 2 h [12]: 1370 ng/mL
- half-life [14]: 1.76 h
- C0 at 24 h [16]: 16300 ng/mL
- solubility [17]: 189 µM (≈ 75.7 µg/mL)
- inhibition (INH) (Cytochrome P450 2C9): Not Active
- half-life [18]: > 2.42 h
- IC50 [19]: 16 nM
- half-life [20]: 3.39 h
- inhibition (INH) (Cytochrome P450 2D6): Not Active
- AUC(0-t) at 24 h [23]: 8180 ng·h/mL
- Tlast [24]: 12 h
- concentration at 0.5 h [25]: 1720 ng/g
- AUC(0-t) at 24 h [26]: 8540 ng·h/mL
Structure (SMILES): CCn1c(=O)[nH]c(=O)c2c1nc(Cc1cn3cc(C)sc3n1)n2CC1COC1
- Activity (Mus musculus [4]): inactive
- Activity (Mus musculus [7]): inactive
- Activity [13]: Non-Toxic
- Activity (Mus musculus [15]): inactive
- inhibition in vivo at 50 mg/kg (MC-38): 50%
- Activity [21]: Non-Toxic
- Activity [22]: Non-Toxic
